Values after ≈ are worked out from the molar mass of the structure shown.
Assays:
Escherichia coli = test: Antibacterial activity against Escherichia coli ATCC 25922 after 24 hrs by agar dilution method; format: functional; settings: ATCC 25922, 24 h
[1] = system: Staphylococcus epidermidis; test: Antibacterial activity against Staphylococcus epidermidis isolate after 24 hrs by agar dilution method; format: functional
Klebsiella aerogenes = test: Antibacterial activity against Enterobacter aerogenes isolate after 24 hrs by agar dilution method; format: functional
Pseudomonas aeruginosa = test: Antibacterial activity against Pseudomonas aeruginosa ATCC 27853 after 24 hrs by agar dilution method; format: functional; settings: ATCC 27853, 24 h
Lacticaseibacillus casei = test: Antibacterial activity against Lactobacillus casei isolate after 24 hrs by agar dilution method; format: functional
[2] = system: Salmonella enterica subsp. enterica; test: Antibacterial activity against Salmonella enteritidis isolate after 24 hrs by agar dilution method; format: functional, Salmonella enterica subsp. enterica serovar Enteritidis
Klebsiella pneumoniae = test: Antibacterial activity against Klebsiella pneumoniae isolate after 24 hrs by agar dilution method; format: functional
Staphylococcus aureus = test: Antibacterial activity against Staphylococcus aureus ATCC 25923 after 24 hrs by agar dilution method; format: functional; settings: ATCC 25923, 24 h

MIC (Escherichia coli): 250 µg/mL (≈ 671 µM) | MIC [1]: 62.5 µg/mL (≈ 168 µM) | MIC (Klebsiella aerogenes): > 500 µg/mL | MIC (Pseudomonas aeruginosa): 500 µg/mL (≈ 1340 µM) | MIC (Lacticaseibacillus casei): > 125 µg/mL | MIC [2]: 125 µg/mL (≈ 336 µM) | MIC (Klebsiella pneumoniae): 250 µg/mL (≈ 671 µM) | MIC (Staphylococcus aureus): 62.5 µg/mL (≈ 168 µM)
SMILES: CCCCC[C@@H]1C[C@@H](O)CC(=O)O[C@H](CCCCC)C[C@@H](O)CC(=O)O1 [VERBALACTONE]
